Assay results: patent US7982042B2, “Thiozanthene derivatives as delta-opioid modulators” (priority 2003, dated 2011)
Where two headings read alike, the source gives them in different places.

Experiments:
[1] = biological target: T1, human delta opioid receptor (Homo sapiens, UniProt P41143); test: [35S]GTPγS binding assay in CHO-hδ cell membranes; format: biochemical
T1 construct: purchased Receptor Biology, Inc. (Baltimore, Md.); host or cells: CHO cells expressing the human delta receptor (membranes)
Description: CHO-hδ cell membranes are purchased from Receptor Biology, Inc. (Baltimore, Md.). 10 mg/ml of membrane protein is suspended in 10 mM TRIS-HC pH 7.2, 2 mM EDTA, 10% sucrose.
(§1) Membranes are maintained at 4-8° C. 1 ml of membranes is added into 15 ml cold binding assay buffer. The assay buffer contained 50 mM HEPES, pH 7.6, 5 mM MgCl2, 100 mM NaCl, 1 mM DTT and 1 mM EDTA. The membrane suspension is homogenized with a Polytron 2 times and centrifuged at 3000 rpm for 10 min. The supernatant is then centrifuged at 18,000 rpm for 20 min. The pellet is saved in a tube and 10 ml assay buffer is added into the tube. The pellet and buffer are mixed with a Polytron.
(§2) The pellet membranes (20 μg/ml) are preincubated with SPA (10 mg/ml) at 25° C. for 45 min in the assay buffer. The SPA (5 mg/ml) coupled with membranes (10 μg/ml) is then incubated with 0.5 nM [^35S]GTPgS in the same HEPES buffer containing 50 μM GDP in total volume of 200 μl. Increasing concentrations of receptor agonists are used to stimulate [^35S]GTPgS binding. The basal binding is tested in the absence of agonists and non-specific binding is tested in the presence of 10 μM unlabeled GTP S. The data are analyzed on a Top counter.

[2] = biological target: T2, Rat brain mu opioid receptor (Rattus norvegicus, UniProt P33535); test: Rat brain mu opioid receptor binding assay ([3H]DAMGO)
T2 construct: from tissue; host or cells: forebrain of male Sprague Dawley rats
Description: • Procedure: Male, Sprague Dawley (150-250 g, VAF, Charles River, Kingston, N.Y.) are killed by CO2, and their brains removed and placed immediately in ice cold Tris HCl buffer (50 mM, pH 7.4). The forebrains are separated from the remainder of the brain by a coronal transection, beginning dorsally at the colliculi and passing ventrally through the midbrain-pontine junction. After dissection, the forebrains are homogenized in Tris buffer in a Teflon®-glass homogenizer. The homogenate is diluted to a concentration of 1 g of forebrain tissue per 80 mL Tris and centrifuged at 39,000×g for 10 min. The pellet is resuspended in the same volume of Tris buffer containing 5 mM MgCl2 with several brief pulses from a Polytron homogenizer. This particulate preparation is used for the mu-opioid binding assays. […] Kd and Ki values are calculated using GraphPad PRISM data analysis program.

human mu opioid receptor = biological target: T3, human mu opioid receptor (Homo sapiens, UniProt P35372); test: [35S]GTPγS binding assay in CHO-hμ cell membranes; format: biochemical; details: inhibition relative to 1 uM DAMGO; for inhibition at 10 µM: read-out: hMOR GTPγS % I @10 μM
T3 construct: purchased Receptor Biology, Inc. (Baltimore, Md.); host or cells: CHO cells expressing the human mu receptor (membranes)
Description: CHO-hμ cell membranes are purchased from Receptor Biology, Inc. (Baltimore, Md.). About 10 mg/ml of membrane protein is suspended in 10 mM TRIS-HC pH 7.2, 2 mM EDTA, 10% sucrose.
as §1, with “assay buffer contains 50 mM” for “assay buffer contained 50 mM”, “is added to the tube.” for “is added into the tube.”
as §2, with “25 C′” for “25° C.”, “present” for “presence of”, “GTPγS.” for “GTP S.”
% of Basal=(stimulate−non-specific)*100/(basal−non specific). % inhibition value values are calculated using a formula, % Inhibition=(% Basal of 1 uM DAMGO−% Basal of compound)*100/(% Basal of 1 uM DAMGO−100)

[3] = biological target: T4, Rat brain delta opioid receptor (Rattus norvegicus, UniProt P33533); test: Rat brain delta opioid receptor binding
T4 construct: from tissue; host or cells: rat brain

[4] = human delta opioid receptor GTPγS functional assay, read-out: hDOR GTPγS EC50
[5] = hDOR GTPγS EC50, human delta opioid receptor GTPγS functional assay

T2 sequence (P33535 whole entry): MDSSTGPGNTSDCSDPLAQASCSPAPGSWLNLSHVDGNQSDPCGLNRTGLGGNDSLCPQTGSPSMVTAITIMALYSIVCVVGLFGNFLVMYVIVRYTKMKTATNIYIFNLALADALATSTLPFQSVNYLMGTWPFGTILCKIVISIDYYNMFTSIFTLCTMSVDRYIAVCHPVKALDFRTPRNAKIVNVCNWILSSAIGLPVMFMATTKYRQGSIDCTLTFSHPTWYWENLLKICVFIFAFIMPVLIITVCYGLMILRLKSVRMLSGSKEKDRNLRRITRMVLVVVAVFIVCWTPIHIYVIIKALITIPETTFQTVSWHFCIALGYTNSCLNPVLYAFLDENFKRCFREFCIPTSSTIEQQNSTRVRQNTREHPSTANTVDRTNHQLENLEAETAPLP
T4 sequence (P33533 whole entry): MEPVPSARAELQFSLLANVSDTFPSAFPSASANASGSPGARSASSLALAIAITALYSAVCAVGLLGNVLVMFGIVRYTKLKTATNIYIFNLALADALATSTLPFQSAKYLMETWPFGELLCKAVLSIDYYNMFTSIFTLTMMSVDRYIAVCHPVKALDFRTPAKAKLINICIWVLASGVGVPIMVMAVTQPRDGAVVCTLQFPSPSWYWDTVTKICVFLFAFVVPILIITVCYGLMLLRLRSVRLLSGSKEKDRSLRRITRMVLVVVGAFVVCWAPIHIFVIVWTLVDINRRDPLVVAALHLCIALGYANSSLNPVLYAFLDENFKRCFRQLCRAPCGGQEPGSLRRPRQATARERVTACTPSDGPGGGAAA
T1 sequence (P41143 whole entry): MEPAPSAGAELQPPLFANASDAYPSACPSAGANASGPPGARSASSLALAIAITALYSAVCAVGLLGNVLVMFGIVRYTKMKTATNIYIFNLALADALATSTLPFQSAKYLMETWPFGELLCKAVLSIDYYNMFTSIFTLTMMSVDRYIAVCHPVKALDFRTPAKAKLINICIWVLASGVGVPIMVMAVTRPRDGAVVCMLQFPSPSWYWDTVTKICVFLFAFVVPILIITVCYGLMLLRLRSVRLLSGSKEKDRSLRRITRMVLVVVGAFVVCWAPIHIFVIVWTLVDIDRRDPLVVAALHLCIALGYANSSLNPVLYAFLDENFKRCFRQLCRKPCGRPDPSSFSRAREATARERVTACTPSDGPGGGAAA
T3 sequence (P35372 whole entry): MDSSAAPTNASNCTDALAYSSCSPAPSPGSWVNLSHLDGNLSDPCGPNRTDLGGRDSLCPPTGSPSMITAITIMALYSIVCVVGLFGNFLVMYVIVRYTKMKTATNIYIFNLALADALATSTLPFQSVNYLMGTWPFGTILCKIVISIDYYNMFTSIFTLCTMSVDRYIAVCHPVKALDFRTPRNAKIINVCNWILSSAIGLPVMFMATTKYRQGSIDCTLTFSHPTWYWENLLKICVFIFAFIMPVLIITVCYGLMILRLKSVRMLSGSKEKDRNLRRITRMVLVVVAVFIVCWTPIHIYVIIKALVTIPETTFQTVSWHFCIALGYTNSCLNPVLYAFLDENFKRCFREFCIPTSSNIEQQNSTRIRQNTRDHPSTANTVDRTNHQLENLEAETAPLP

Compound: CCN(CC)C(=O)c1ccc2c(c1)Oc1ccccc1C2=C1CCN(CCc2ccccc2)CC1 [Compound 22]
- EC50 [1, 4]: > 10000 nM
- Ki ([2]; read-out: rMOR Ki): 2130 nM
- inhibition at 10 µM (human mu opioid receptor): 2%
- Ki ([3]; rDOR Ki): 45.4 nM

Compound: CCNC(=O)c1ccc2c(c1)OCc1ccccc1C2=C1CC2CCC(C1)N2CCc1ccccc1 [Compound 26, 1-(8-Phenethyl-8-aza-bicyclo[3.2.1]oct-3-ylidene)-6,11-dihydro-dibenzo[b,e]oxepine-3-carboxylic acid ethylamide]
- Ki ([2]; read-out: rMOR Ki): 15.6 nM
- hMOR GTPγS % I @10 μM (human mu opioid receptor): 41.00%
- Ki ([3]; read-out: rDOR Ki): 5480 nM

Compound: CCN(CC)C(=O)c1ccc2c(c1)Oc1ccccc1C2=C1CCN(CCO)CC1 [Compound 35, 9-[1-(2-Hydroxy-ethyl)-piperidin-4-ylidene]-9H-xanthene-3-carboxylic acid diethylamide]
- EC50 [1, 4]: 271 nM
- Ki ([2]; read-out: rMOR Ki): > 10000 nM
- inhibition at 10 µM (human mu opioid receptor): 17%
- Ki ([3]; rDOR Ki): 7.01 nM

Compound: CCN(CC)C(=O)c1ccc2c(c1)Oc1ccccc1C2=C1CCN(C(=N)N)CC1 [Compound 31, 9-(1-Carbamimidoyl-piperidin-4-ylidene)-9H-xanthene-3-carboxylic acid diethylamide]
- EC50 [1, 4]: 253 nM
- Ki ([2]; read-out: rMOR Ki): 564 nM
- inhibition at 10 µM (human mu opioid receptor): 14%
- Ki ([3]; rDOR Ki): 29.8 nM

Compound: CCN(CC)C(=O)c1ccc2c(c1)Oc1ccccc1C2=C1CCN(Cc2ccoc2)CC1 [Compound 28, 9-(1-Furan-3-ylmethyl-piperidin-4-ylidene)-9H-xanthene-3-carboxylic acid diethylamide]
- EC50 [1, 5]: 70.3 nM
- Ki ([2]; rMOR Ki): 811 nM
- inhibition at 10 µM (human mu opioid receptor): 24%
- Ki ([3]; rDOR Ki): 0.07 nM

Compound: CCN(CC)C(=O)c1ccc2c(c1)Oc1ccccc1C2=C1CCNCC1 [Compound 3, 9-Piperidin-4-ylidene-9H-xanthene-3-carboxylic acid diethylamide]
- EC50 [1, 5]: 47 nM
- Ki ([2]; rMOR Ki): 6790 nM
- inhibition at 10 µM (human mu opioid receptor): 1%
- Ki ([3]; rDOR Ki): 0.95 nM

Compound: CCN(CC)C(=O)c1ccc2c(c1)Oc1ccccc1C2=C1CC2CCC(C1)N2CCSC [Compound 40, 9-[8-(Methylsulfanyl-ethyl)-8-aza-bicyclo[3.2.1]oct-3-ylidene]-9H-xanthene-3-carboxylic acid diethylamide]
- EC50 [1, 5]: 267 nM
- Ki ([2]; rMOR Ki): > 10000 nM
- Ki ([3]; rDOR Ki): 12 nM

Compound: CCN(CC)C(=O)c1ccc2c(c1)Oc1ccccc1C2=C1CCN(C)CC1 [Compound 7, 9-(1-Methyl-piperidin-4-ylidene)-9H-xanthene-3-carboxylic acid diethylamide]
- Ki ([2]; rMOR Ki): 9190 nM
- inhibition at 10 µM (human mu opioid receptor): 1%
- Ki ([3]; rDOR Ki): 25.7 nM

Compound: CCN(CC)C(=O)c1ccc2c(c1)OCc1ccccc1C2=C1CCN(CCc2ccccc2)CC1 [Compound 5, 11-(1-Phenylethylpiperidin-4-ylidene)-6,11-dihydro-dibenzo[b,e]oxepine-3-caroboxylic diethylamide]
- EC50 [1, 4]: > 10000 nM
- inhibition at 10 µM ([1]; read-out: inhibition of GTP binding induced with 1 uM DPDPE): 19%
- Ki ([2]; read-out: rMOR Ki): 1290 nM
- Ki ([3]; rDOR Ki): 25.3 nM

Compound: CCN(CC)C(=O)c1ccc2c(c1)OCc1ccccc1C2=C1CCNCC1 [Compound 2]
- EC50 [1, 5]: 58.6 nM
- Ki ([2]; rMOR Ki): 2630 nM
- Ki ([3]; rDOR Ki): 0.91 nM

Compound: CCN(CC)C(=O)c1ccc2c(c1)Oc1ccccc1C2=C1CC2CCC(C1)N2C [Compound 23, 9-(8-Methyl-8-aza-bicyclo[3.2.1]oct-3-ylidene)-9H-xanthene-3-carboxylic acid diethylamide]
- EC50 [1, 5]: 245 nM
- Ki ([2]; rMOR Ki): 5560 nM
- Ki ([3]; rDOR Ki): 48.4 nM

Compound: CCN(CC)C(=O)c1ccc2c(c1)Sc1ccccc1C2=C1CC2CCC(C1)N2 [Compound 48, 9-(8-Aza-bicyclo[3.2.1]oct-3-ylidene)-9H-thioxanthene-3-carboxylic acid diethylamide]
- EC50 [1, 5]: 18.8 nM
- Ki ([2]; rMOR Ki): > 100 nM
- Ki ([3]; rDOR Ki): 0.9 nM

Compound: C=CCN1C2CCC1CC(=C1c3ccccc3Oc3cc(C(=O)N(CC)CC)ccc31)C2 [Compound 38, 9-(8-Allyl-8-aza-bicyclo[3.2.1]oct-3-ylidene)-9H-xanthene-3-carboxylic acid diethylamide]
- EC50 [1, 5]: 342 nM
- Ki ([2]; rMOR Ki): 5520 nM
- Ki ([3]; rDOR Ki): 31.8 nM
